Publication PMC10298512, “Synthesis and Anticancer Evaluation of Novel 7-Aza-Coumarine-3-Carboxamides” (International Journal of Molecular Sciences, 2023)

How the values were obtained:
Format in all cases: cell-based, human
M-HeLa = experiment: MTT cytotoxicity test, M-HeLa cells; details: Homo sapiens, M-HeLa, 24 h incubation, tested at 1–100 µM, three independent experiments, read-out: IC50 (µM) Cancer Cell Lines M-HeLa
HuTu 80 = experiment: MTT cytotoxicity test, HuTu 80 cells
Chang liver = experiment: MTT cytotoxicity test, normal Chang liver cells; details: Homo sapiens, Chang liver, 24 h incubation, tested at 1–100 µM, three independent experiments, read-out: IC50 (µM) Normal Cell Lines Chang Liver
HuTu 80 cells [1] = experiment: Cell apoptosis analysis by flow cytometry (annexin V-Alexa Fluor 647 / propidium iodide); details: HuTu 80, IC50/2 and IC50 concentrations, 24-h incubation
Excerpt: Induction of apoptosis is one of the most important mechanisms of anticancer activity. The apoptosis-inducing effect in HuTu 80 cells was studied by flow cytometry using sets of annexin V binding to the apoptosis marker phosphatidylserine. On the surface of the membranes of healthy cells, phosphatidylserine is contained in a minimal amount. Therefore, the interaction of annexin V with these cells is negligible. During apoptosis, phosphatidylserine molecules appear on the cell surface and can interact with the protein. This interaction leads to an increase in the fluorescence intensity of apoptotic cells, which is recorded by a flow cytometer. The apoptosis-inducing effect was evaluated using the example of the leader compound 7r at IC50/2 and IC50 concentrations on the HuTu 80 cell line (Figure 1).
(§1) Cell Culture. HuTu 80 cells at 1 × 10^6 cells/well in a final volume of 2 mL were seeded into six-well plates.
Cell Apoptosis Analysis. […] The cells were harvested at 2000 rpm for 5 min and then washed twice with ice-cold PBS, followed by resuspension in binding buffer. Next, the samples were incubated with 5 μL of annexin V- Alexa Fluor 647 (Sigma-Aldrich, St. Louis, MO, USA) and 5 μL of propidium iodide (Sigma-Aldrich, St. Louis, MO, USA) for 15 min at room temperature in the dark. Finally, the cells were analyzed using flow cytometry (Guava easy Cyte, MERCK, Darmstadt, Germany) within 1 h. […]

HuTu 80 cells [2] = experiment: Mitochondrial membrane potential by flow cytometry (JC-10); details: HuTu 80, IC50/2 and IC50 concentrations, 24-h incubation
Excerpt: Violation of the functions of the mitochondria of the cell is one of the most common signs of apoptosis inherent in eukaryotic organisms. With mitochondrial dysfunction, pro-apoptotic factors are released into the cytoplasm—cytochrome c, AIF, Smac/DIABLO, endonuclease G, as well as proforms of caspases 2, 3, and 9—inducing the cascade. The release of these protein factors can be associated both with the rupture of mitochondrial membranes and with the activation of specific channels in the outer mitochondrial membrane. This usually leads to a change in the mitochondrial membrane potential (ΔΨm) due to a change in the permeability of the inner mitochondrial membrane for H+ protons. […] The principle of operation of these dyes is determined by their ability to spontaneously penetrate through the cytoplasmic membranes of cells, as well as the outer and inner membranes of mitochondria and accumulate in areas with a high concentration of protons, that is, under the inner mitochondrial membrane. This effect is accompanied by a change in the intensity of cell fluorescence, which is recorded by cytofluorimetry. […] JC-10 accumulates in the mitochondrial matrix and forms aggregates (J-aggregates) with red fluorescence in normal cells with a high mitochondrial membrane potential. […]

HuTu 80 cells [3] = experiment: Detection of intracellular ROS by flow cytometry (CellROX Deep Red); details: for Fluorescence intensity (CellROX Deep Red, ROS production): 24 h
Excerpt: Increased generation of reactive oxygen species (ROS) by the test compounds can also characterize the development of apoptosis along the mitochondrial pathway. Mitochondria are both a potential source and target of ROS. An increase in ROS production leads to the disruption of mitochondrial functions and, subsequently, to irreversible damage and cell death. In this regard, the effect of lead compound 7r at IC50/2 and IC50 concentrations on ROS production in HuTu 80 cells was investigated using a flow cytometry assay and the CellROX® Deep Red flow cytometry kit. […] This indicates an increase in ROS production in the presence of the test compound.
as §1
ROS generation was investigated using a flow cytometry assay and CellROX® Deep Red flow cytometry kit. For this, […] cells were harvested at 2000 rpm for 5 min and then washed twice with ice-cold PBS, followed by resuspension in 0.1 mL of medium without FBS, to which we added 0.2 μL of CellROX® Deep Red (Thermo Fisher Scientific, Waltham, MA, USA) and incubated at 37 °C for 30 min After three times washing the cells and suspending them in PBS, the production of ROS in the cells was immediately monitored using flow cytometer Guava easy Cyte, MERCK).

Cc1ncc(CCl)c2cc(C(=O)Nc3ccc(S(=O)(=O)c4ccc(NC(=O)c5cc6c(CCl)cnc(C)c6oc5=O)cc4)cc3)c(=O)oc12 [7r, N,N′-(Sulfonylbis(4,1-phenylene))bis(5-(chloromethyl)-8-methyl-2-oxo-2H-pyrano[2,3-c]pyridine-3-carboxamide)]
IC50 (M-HeLa): 64.5 ± 4.5 µM
IC50 (HuTu 80; Homo sapiens, HuTu80, MTT test, 24 h incubation, tested at 1–100 µM, three independent experiments, read-out: IC50 (µM) Cancer Cell Lines HuTu 80): 5.5 ± 0.4 µM
selectivity index, SI = IC50(Chang liver)/IC50(HuTu 80) (HuTu 80; normal Chang liver vs HuTu 80): 14
IC50 (Chang liver): 78 ± 5.9 µM
apoptosis-inducing effect (in words) (HuTu 80 cells [1]): apoptotic effects were registered
change in mitochondrial membrane potential (in words) (HuTu 80 cells [2]): decrease in the mitochondrial membrane potential
Fluorescence intensity (CellROX Deep Red, ROS production) (HuTu 80 cells [3]; HuTu 80, 2.8 µM (IC50/2)): 1400
Fluorescence intensity (CellROX Deep Red, ROS production) (HuTu 80 cells [3]; HuTu 80, 5.5 µM (IC50)): 1700
ROS production vs control (in words) (HuTu 80 cells [3]; HuTu 80, IC50/2 and IC50 concentrations): significant increase
